Assay [1] has as its system voltage-gated sodium channels. The assay can be described thus: Fluorometric membrane potential assay in SK-N-SH cells (veratridine stimulus, FLIPR). In kind it is cell-based. Conditions: 10 μM compound, 5 μM veratridine. The procedure: Screening Assay for Voltage-Gated Sodium Channel Antagonists Fluorometric Membrane Potential Assay
SK-N-SH neuroblastoma cells were maintained in a propagation medium containing modified Eagle's medium and 10% (v/v) fetal bovine serum and were incubated at 37° C. in a 5% CO2 atmosphere. Only cells with fewer than 20 passages were used in each assay. All drugs were prepared in DMSO, and the final concentration of solvent was less than 0.1% (v/v). Veratridine, a toxin that selectively promotes persistent activation of voltage-gated sodium channels, served as the stimulus. 24 hr prior to testing, 1×10^5 cells/well were plated into 96-well plates specifically designed for use in a fluorescent imaging plate reader (FLIPR) (Molecular Devices, Sunnyvale, Calif.)
Prior to screening, monolayers of cells were loaded with 100 μL/well of a proprietary voltage-sensitive dye (Molecular Devices, Sunnyvale, Calif.) for 30 min at 37° C. After this incubation period, the cells were stimulated with 5 μM veratridine in the presence or absence of investigational compounds (prepared at a final concentration of 10 μM in DMSO). A sample containing 5 μM veratridine and 10 μM tetrodotoxin accounted for nonspecific activity. The fluorescence was monitored by the FLIPR (Molecular Devices) from 10 sec prior to drug addition (50 μL) to 170 sec after drug addition at 25° C. During sodium channel activation, the cells depolarize and the dye associates with cell membranes, resulting in increased fluorescence.

In assay [2] the test system is mechanical allodynia after L5 spinal nerve ligation. Put plainly: Chung Model (spinal nerve ligation) antiallodynic effect. In kind it is in vivo. The conditions noted are these: po; rat, orally administered. The source says: Procedure for Testing Antiallodynic Effect
The procedure used to detect the antiallodynic effect of a compound of the present invention for which there is a good correlation with human efficacy for the treatment of pain is the procedure for the measurement of allodynia found in the Chung Model (Kim S. H. and Chung J. M., An Experimental Model for Peripheral Neuropathy Produced by Segmental Spinal Nerve Ligation in the Rat, Pain, 1992, 50, 355-363). The antiallodynic effect of the composition of the present invention in the Chung Model is expressed in % MPE (Maximum Possible Effect).
Male Sprague-Dawley rats, weighing approximately 200 g each were anesthetized with isoflurane. The spinal nerve at the level of L5 was exposed through an incision just left of the dorsal midline and tightly ligated with 6-0 silk. At various times after surgery, animals were tested for mechanical allodynia with von Frey hairs (monofilaments which are calibrated to bend under a certain amount of pressure, ranging from 0.41 to 15.1 g). In order to calculate a paw withdrawal threshold (PWT), tactile allodynia was measured by recording the pressure at which the affected paw was withdrawn from graded stimuli according to the procedure of S. R. Chaplan, J. W. Pogrel, T. L. Yaksh, Role of Voltage-Dependent Calcium Channel Subtypes in Experimental Tactile Allodynia, J. Pharmacol. Exp. Ther., 1994, 269, 1117-1123. Normal rats can withstand at least 15 g of pressure without responding. Operated rats, however, can respond to as little as 0.25 g of pressure. The surgery was deemed successful if the animal responded with a PWT of less than 4 g of pressure applied to the affected paw. […] The PWT was used to calculate the % maximal possible effect (% MPE) according to the formula: %MPE=100×[(PWT−CT)/(CO−CT)]; wherein PWT is defined as Paw Withdrawal Threshold, CT is Control Threshold, and CO is Cut Off (defined as 15 g).
The sham operation consisted of a similar surgery; the spinal nerve was visualized without being ligated.
Compounds selected from Formula (I) and Formula (II) were tested for activity in treating or modulating neuropathic pain by being dissolved or suspended in either water or hydroxypropyl methylcellulose, respectively. Postoperative animals between 14 to 42 days were fasted overnight prior to dosing. Animals were orally dosed and dosage volumes were calculated on a 4 mL/kg basis.

As a reminder, the ED50 is the midpoint of the dose-response relation. Low values mean greater potency, high ones weaker potency. On to `Cn1cc(C(=O)c2ccncc2)cc1C(=O)c1ccc(Cl)cc1` [Cpd 1, [5-(4-Chlorobenzoyl)-1-methyl-1H-pyrrol-3-yl]pyridin-4-ylmethanone], for which the “% FI at 10 μM (% fluorescence inhibition)” value in assay [1] worked out at 32%. The compound also displayed an ED50 in assay [2] of 22 mg/kg.

For the origin of these results see patent US6897319B2, “Useful aroyl pyrrole heteroaryl methanones and methanols” (Ortho-McNeil Pharmaceutical, Inc., priority 2001, dated 2005).
